Laboratory results reported in patent US20060194853A1, “Alkyl benzamides” (priority 2004, published 2006).

Assays:
Format in all cases: cell-based
[1] = tested on: Trichomonas vaginalis UCH-1; assay: in vitro growth inhibition of Trichomonas vaginalis; conditions: for IC50: in vitro, concentration required to inhibit 50% of the growth of the organisms; for effective against T. vaginalis: result in words
[2] = tested on: Giardia intestinalis JKH-1; assay: in vitro growth inhibition of Giardia intestinalis; conditions: for effective against G. intestinalis: result in words; for IC50: Giardia duodenalis, in vitro, concentration required to inhibit 50% of the growth of the organisms
Influenza B = assay: activity against Influenza B; conditions: result in words
Influenza A = assay: activity against Influenza A; conditions: result in words
P. falciparum = assay: activity against P. falciparum; conditions: result in words
Campylobacter jejuni = assay: activity against Campylobacter jejuni; conditions: result in words
Herpes Varicella A = assay: activity against Herpes Varicella (VZV); conditions: result in words
Helicobacter pylori = assay: activity against Helicobacter pylori; conditions: result in words

| SMILES | effective against T. vaginalis [1] | effective against G. intestinalis [2] | IC50 ([1]; Trichomonas vaginalis, UCH1) [µM] | IC50 [2] [µM] | further results |
| --- | --- | --- | --- | --- | --- |
| O=C(Nc1ncc([N+](=O)[O-])s1)c1ccccc1O [Compound A, 2-hydroxy-N-(5-nitro-2-thiazolyl) benzamide, reference compound] | – | – | – | – | IC50 [1]: 1.52 µM |
| CC(=O)Oc1cc(C)ccc1C(=O)Nc1ncc([N+](=O)[O-])s1 [Compound F, 2-acetyloxy-4-methyl-N-(5-nitro-2-thiazolyl) benzamide] | effective | effective | – | – | – |
| CC(=O)Oc1c(C)cccc1C(=O)Nc1ncc([N+](=O)[O-])s1 [Compound D, 2-acetyloxy-3-methyl-N-(5-nitro-2-thiazolyl) benzamide] | effective | effective | 8.04 | 0.56 | effective against Influenza B (Influenza B): effective; effective against Influenza A (Influenza A): effective; potency against Giardia intestinalis compared to nitazoxanide ([2]; comparison in words, from TABLE I): significantly more potent than nitazoxanide; effective against P. falciparum (P. falciparum): effective; effective against C. jejuni (Campylobacter jejuni): effective; effective against Herpes VZV (Herpes Varicella A): effective; effective against H. Pylori (Helicobacter pylori): effective |
| CC(=O)Oc1ccccc1C(=O)Nc1ncc([N+](=O)[O-])s1 [Compound B, 2-acetyloxy-N-(5-nitro-2-thiazolyl)benzamide, reference compound] | – | – | 0.605 | 12.5 | – |
| CC(=O)Oc1ccc(C)cc1C(=O)Nc1ncc([N+](=O)[O-])s1 [Compound H, 2-acetyloxy-5-methyl-N-(5-nitro-2-thiazolyl) benzamide] | effective | effective | – | – | – |
